Like-named read-outs stand apart in the source and are kept apart here.
Experiments:
EGFR (L858R T790M C797S) = target: T1, EGFR (L858R T790M C797S) (Homo sapiens, UniProt P00533, C797S/L858R/T790M); experiment: Biochemical EGFR inhibition assay (Caliper mobility shift), EGFR LRTMCS mutant; settings: inhibitory activity against EGFR LRTMCS mutant; apparent IC50; read-out: Ext Enz LRTMCS
T1 construct: purchased SignalChem E10-122VG
Method in brief: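 Kinase reactions at 25 °C run to 10–20% peptide phosphorylation, stopped with 35 mM EDTA. Phosphorylated product and substrate separated electrophoretically by mobility shift. Apparent IC50 from percent activity versus log compound concentration.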

[1] = tested on: phosphorylation of EGFR (Tyr1068) in NCI-H1975 cell line that harbors the EGFR L858R T790M mutations; experiment: NCI-H1975 pEGFR AlphaLISA assay; format: cell-based; settings: 4-5 hours incubation, read-out: Ext pEGFR H1975
Method in brief: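 NCI-H1975 cells (EGFR L858R/T790M) seeded overnight, then treated with compound for 4-5 h at 37 °C/5% CO2. After lysis, p-EGFR (Tyr1068) quantified by AlphaLISA SureFire Ultra with acceptor then donor beads; IC50 fitted from percent inhibition versus log concentration.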

[2] = Homo sapiens, NCI-H1975, inhibition of phosphorylation of mutant EGFR in NCI-H1975 cells

T1 sequence (P00533 25-1210 T790M/C797S/L858R): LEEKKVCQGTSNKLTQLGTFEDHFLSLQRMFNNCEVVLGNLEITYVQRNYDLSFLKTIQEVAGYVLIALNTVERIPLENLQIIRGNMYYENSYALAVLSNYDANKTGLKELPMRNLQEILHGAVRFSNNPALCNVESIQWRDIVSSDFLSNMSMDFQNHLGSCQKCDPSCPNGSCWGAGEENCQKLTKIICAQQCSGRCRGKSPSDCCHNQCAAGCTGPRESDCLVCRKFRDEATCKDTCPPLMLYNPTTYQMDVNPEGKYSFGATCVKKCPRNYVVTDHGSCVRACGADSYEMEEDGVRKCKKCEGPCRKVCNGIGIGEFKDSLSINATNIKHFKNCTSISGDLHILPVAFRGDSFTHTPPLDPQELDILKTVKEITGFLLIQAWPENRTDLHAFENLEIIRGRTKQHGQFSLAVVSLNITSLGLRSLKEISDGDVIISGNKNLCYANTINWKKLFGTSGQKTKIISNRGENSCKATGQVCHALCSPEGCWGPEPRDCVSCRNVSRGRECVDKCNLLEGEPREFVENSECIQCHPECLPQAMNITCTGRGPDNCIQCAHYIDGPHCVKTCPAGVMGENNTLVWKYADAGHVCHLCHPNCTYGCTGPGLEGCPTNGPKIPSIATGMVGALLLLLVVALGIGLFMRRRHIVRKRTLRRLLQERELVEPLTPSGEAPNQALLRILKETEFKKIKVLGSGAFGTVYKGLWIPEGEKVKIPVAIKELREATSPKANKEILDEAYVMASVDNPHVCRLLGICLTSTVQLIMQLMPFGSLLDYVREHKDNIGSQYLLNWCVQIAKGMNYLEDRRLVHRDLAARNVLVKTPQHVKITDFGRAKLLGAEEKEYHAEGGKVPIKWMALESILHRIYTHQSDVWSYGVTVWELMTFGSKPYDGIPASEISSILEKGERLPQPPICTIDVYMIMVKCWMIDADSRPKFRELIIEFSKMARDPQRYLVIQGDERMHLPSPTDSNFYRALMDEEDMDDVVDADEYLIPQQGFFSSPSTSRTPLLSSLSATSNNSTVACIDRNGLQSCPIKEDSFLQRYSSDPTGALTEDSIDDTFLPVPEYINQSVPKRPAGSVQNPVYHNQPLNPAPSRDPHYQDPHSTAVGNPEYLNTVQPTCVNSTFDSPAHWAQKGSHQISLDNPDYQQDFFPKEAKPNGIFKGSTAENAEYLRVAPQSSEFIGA

SMILES	IC50 (EGFR (L858R T790M C797S)) [nM]	IC50 [1, 2] [nM]	IC50 ([1]; inhibition of phosphorylation of mutant EGFR in NCI-H1975 cells) [nM]
CO[C@@H]1CN(c2nccc(Nc3cc4c(C(C)C)ccc(N5CC(CS(C)(=O)=O)C5)c4cn3)n2)C[C@H](F)[C@@H]1O (single isomer, unassigned) [Compound 149, (3S,4R,5R)-3-fluoro-1-[4-({8-[3-(methanesulfonylmethyl)azetidin-1-yl]-5-(propan-2-yl)isoquinolin-3-yl}amino)pyrimidin-2-yl]-5-methoxypiperidin-4-ol or (3R,4S,5S)-3-fluoro-1-[4-({8-[3-(methanesulfonylmethyl)azetidin-1-yl]-5-(propan-2-yl)isoquinolin-3-yl}amino)pyrimidin-2-yl]-5-methoxypiperidin-4-ol]	15.1 to 20	10.1 to 20	
CC(C)c1ccc(N2CC(CS(C)(=O)=O)C2)c2cnc(Nc3ccnc(N4CC[C@](C)(O)C[C@@H]4C)n3)cc12 (single isomer, unassigned) [Compound 44, (2R,4R)-1-[4-({8-[3-(methanesulfonylmethyl)azetidin-1-yl]-5-(propan-2-yl)isoquinolin-3-yl}amino)pyrimidin-2-yl]-2,4-dimethylpiperidin-4-ol or (2S,4S)-1-[4-({8-[3-(methanesulfonylmethyl)azetidin-1-yl]-5-(propan-2-yl)isoquinolin-3-yl}amino)pyrimidin-2-yl]-2,4-dimethylpiperidin-4-ol]	≤ 15	≤ 10	
C[C@H](CO)c1ccc(N2C[C@@H](CS(C)(=O)=O)[C@@H]2C)c2cnc(Nc3ccnc(N4CC[C@@H](O)[C@@](C)(F)C4)n3)cc12 (single isomer, unassigned) [Compound 196, (3S,4R)-3-fluoro-1-[4-({5-[(2S)-1-hydroxypropan-2-yl]-8-[(2S,3R)-3-(methanesulfonylmethyl)-2-methylazetidin-1-yl]isoquinolin-3-yl}amino)pyrimidin-2-yl]-3-methylpiperidin-4-ol or (3S,4R)-3-fluoro-1-[4-({5-[(2R)-1-hydroxypropan-2-yl]-8-[(2S,3R)-3-(methanesulfonylmethyl)-2-methylazetidin-1-yl]isoquinolin-3-yl}amino)pyrimidin-2-yl]-3-methylpiperidin-4-ol]	≤ 15	10.1 to 20	
CC(C)c1cnc(N2CC([C@@H](C)S(C)(=O)=O)C2)c2cnc(Nc3ccnc(N4CC[C@@H](O)[C@@](C)(F)C4)n3)cc12 (single isomer, unassigned) [Compound 127]	≤ 15	≤ 10	
CO[C@@H]1CCN(c2nncc(Nc3cc4c(C(C)C)ccc(N5C[C@H](CS(C)(=O)=O)[C@H]5C)c4cn3)n2)C[C@@H]1F [Compound 134, N-(3-((3S,4R)-3-fluoro-4-methoxypiperidin-1-yl)-1,2,4-triazin-5-yl)-5-isopropyl-8-((2R,3S)-2-methyl-3-(methylsulfonylmethyl)azetidin-1-yl)isoquinolin-3-amine]	≤ 15	≤ 10	
[2H]C([2H])([2H])O[C@@H]1CCN(c2nccc(Nc3cc4c(C(C)C)ncc(N5C[C@H](CS(C)(=O)=O)[C@H]5C)c4cn3)n2)C[C@@H]1F (single isomer, unassigned) [Compound 162, N-{2-[(3R,4S)-3-fluoro-4-(^2H3)methoxypiperidin-1-yl]pyrimidin-4-yl}-8-[(2R,3S)-3-(methanesulfonylmethyl)-2-methylazetidin-1-yl]-5-(propan-2-yl)-2,6-naphthyridin-3-amine or N-{2-[(3S,4R)-3-fluoro-4-(^2H3)methoxypiperidin-1-yl]pyrimidin-4-yl}-8-[(2R,3S)-3-(methanesulfonylmethyl)-2-methylazetidin-1-yl]-5-(propan-2-yl)-2,6-naphthyridin-3-amine]	≤ 15		≤ 10
CC(C)c1ccc(N2CC(CS(C)(=O)=O)C2)c2cnc(Nc3ccnc(N4C[C@H](F)[C@H](O)C(C)(C)C4)n3)cc12 (single isomer, unassigned) [Compound 109, (4S,5R)-5-fluoro-1-[4-({8-[3-(methanesulfonylmethyl)azetidin-1-yl]-5-(propan-2-yl)isoquinolin-3-yl}amino)pyrimidin-2-yl]-3,3-dimethylpiperidin-4-ol or (4R,5S)-5-fluoro-1-[4-({8-[3-(methanesulfonylmethyl)azetidin-1-yl]-5-(propan-2-yl)isoquinolin-3-yl}amino)pyrimidin-2-yl]-3,3-dimethylpiperidin-4-ol]	≤ 15	≤ 10	
CC(C)c1cnc(N2CC(CS(=O)(=O)C(C)C)C2)c2cnc(Nc3ccnc(N4CC[C@@H](O)[C@@](C)(F)C4)n3)cc12 (single isomer, unassigned) [Compound 188]	≤ 15	≤ 10	
[2H]C([2H])([2H])O[C@H]1CCN(c2nccc(Nc3cc4c(C5CC5)ccc(N5C[C@H](CS(C)(=O)=O)[C@H]5C)c4cn3)n2)C[C@H]1F [Compound 316, 5-cyclopropyl-N-(2-((3R,4S)-3-fluoro-4-(^2H3)piperidin-1-yl)pyrimidin-4-yl)-8-((2R,3S)-2-methyl-3-((methylsulfonyl)methyl)azetidin-1-yl)isoquinolin-3-amine]	≤ 15	≤ 10	

Other lines, results leading:

IC50 (EGFR (L858R T790M C797S)) [nM]	IC50 [1, 2] [nM]	IC50 ([1]; inhibition of phosphorylation of mutant EGFR in NCI-H1975 cells) [nM]	SMILES
20.1 to 30	≤ 10		CC(C)c1ccc(N2C[C@H](CS(C)(=O)=O)[C@H]2C)c2cnc(Nc3ccnc(N4CC[C@H](OCC(C)(C)O)[C@H](F)C4)n3)cc12 [Compound 255, 1-{[(3R,4S)-3-fluoro-1-[4-({8-[(2R,3S)-3-(methanesulfonylmethyl)-2-methylazetidin-1-yl]-5-(propan-2-yl)isoquinolin-3-yl}amino)pyrimidin-2-yl]piperidin-4-yl]oxy}-2-methylpropan-2-ol]
≤ 15	10.1 to 20		COCCO[C@H]1CCN(c2nccc(Nc3cc4c(F)ccc(N5C[C@H](CS(C)(=O)=O)[C@H]5C)c4cn3)n2)C[C@H]1F (single isomer, unassigned) [Compound 216]
30.1 to 100	10.1 to 20		CO[C@@H]1CCN(c2nccc(Nc3cc4c(C(C)C)ccc(N5C[C@H](CS(C)(=O)=O)[C@H]5C)c4cn3)n2)C[C@@H]1OCCO (single isomer, unassigned) [Compound 296, 2-{[(3S,4R)-1-[4-({8-[(2R,3S)-3-(methanesulfonylmethyl)-2-methylazetidin-1-yl]-5-(propan-2-yl)isoquinolin-3-yl}amino)pyrimidin-2-yl]-4-methoxypiperidin-3-yl]oxy}ethan-1-ol or 2-{[(3R,4S)-1-[4-({8-[(2R,3S)-3-(methanesulfonylmethyl)-2-methylazetidin-1-yl]-5-(propan-2-yl)isoquinolin-3-yl}amino)pyrimidin-2-yl]-4-methoxypiperidin-3-yl]oxy}ethan-1-ol]
≤ 15	≤ 10		CC(C)c1ccc(N2C[C@H](CS(C)(=O)=O)[C@H]2C)c2cnc(Nc3ccnc(N4CC[C@@H](O)[C@@H](F)C4)n3)cc12 [Compound 62, (3S,4R)-3-fluoro-1-(4-((5-isopropyl-8-((2R,3S)-2-methyl-3-((methylsulfonyl)methyl)azetidin-1-yl)isoquinolin-3-yl)amino)pyrimidin-2-yl)piperidin-4-ol]
20.1 to 30	≤ 10		CC(C)c1ccc(N2C[C@H](CS(C)(=O)=O)[C@H]2C)c2cnc(Nc3ccnc(N4CC[C@H](OCCO)C(F)(F)C4)n3)cc12 (single isomer, unassigned) [Compound 252]
≤ 15	10.1 to 20		CC(C)c1ccc(N2C[C@H](CS(C)(=O)=O)[C@H]2C)c2cnc(Nc3ccnc(N4CC[C@](F)(CO)C4)n3)cc12 (single isomer, unassigned) [Compound 270, [(3R)-3-fluoro-1-[4-({8-[(2R,3S)-3-(methanesulfonylmethyl)-2-methylazetidin-1-yl]-5-(propan-2-yl)isoquinolin-3-yl}amino)pyrimidin-2-yl]pyrrolidin-3-yl]methanol or [(3S)-3-fluoro-1-[4-({8-[(2R,3S)-3-(methanesulfonylmethyl)-2-methylazetidin-1-yl]-5-(propan-2-yl)isoquinolin-3-yl}amino)pyrimidin-2-yl]pyrrolidin-3-yl]methanol]
≤ 15	10.1 to 20		CO[C@@H]1CCN(c2nccc(Nc3cc4c(C(C)C)ncc(N5C[C@H](CS(C)(=O)=O)[C@H]5C)c4cn3)n2)C[C@@H]1O (single isomer, unassigned) [Compound 103, (3S,4R)-1-(4-(5-isopropyl-8-((2R,3S)-2-methyl-3-(methylsulfonylmethyl)azetidin-1-yl)-2,6-naphthyridin-3-ylamino)pyrimidin-2-yl)-4-methoxypiperidin-3-ol or (3R,4S)-1-(4-(5-isopropyl-8-((2R,3S)-2-methyl-3-(methylsulfonylmethyl)azetidin-1-yl)-2,6-naphthyridin-3-ylamino)pyrimidin-2-yl)-4-methoxypiperidin-3-ol]
≤ 15	10.1 to 20		CO[C@@H]1CCN(c2nccc(Nc3cc4c(C(C)C)ccc(N5C[C@H](CS(C)(=O)=O)[C@H]5C)c4cn3)n2)C[C@H]1CO (single isomer, unassigned) [Compound 174, [(3S,4R)-1-[4-({8-[(2R,3S)-3-(methanesulfonylmethyl)-2-methylazetidin-1-yl]-5-(propan-2-yl)isoquinolin-3-yl}amino)pyrimidin-2-yl]-4-methoxypiperidin-3-yl]methanol or [(3R,4S)-1-[4-({8-[(2R,3S)-3-(methanesulfonylmethyl)-2-methylazetidin-1-yl]-5-(propan-2-yl)isoquinolin-3-yl}amino)pyrimidin-2-yl]-4-methoxypiperidin-3-yl]methanol]

Reference: US12172983B2, “EGFR inhibitors” (Blueprint Medicines Corporation, priority 2019, dated 2024)
